Test results published in patent US5852007A, “Cysteine and serine protease inhibitors containing D-amino acid at the P2 position, methods of making same, and methods of using same” (priority 1997, dated 1998).
Square brackets hold non-standard residues; d marks the D form. Peptide text beside a SMILES is read from it. * marks the point of attachment. ξ: configuration not given here. ξF = NC(Cc1ccccc1)C(=O)O; Bn = c1ccc(C*)cc1; Ms = CS(=O)(=O)*; CH2F = FC*

Assays:
cathepsin L = target: T1, cathepsin L (Homo sapiens, UniProt P07711); assay: Inhibition of cathepsin L; assay type: biochemical; settings: Table II; read-out: Cat L IC50
T1 construct: purchased Calbiochem 219402
T1 sequence (P07711 114-288 limits assumed): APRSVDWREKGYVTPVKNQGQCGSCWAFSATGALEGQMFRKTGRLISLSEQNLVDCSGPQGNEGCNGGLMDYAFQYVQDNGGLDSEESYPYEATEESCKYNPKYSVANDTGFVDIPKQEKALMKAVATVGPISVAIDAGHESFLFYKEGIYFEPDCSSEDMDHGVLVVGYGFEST
T1 sequence (P07711 292-333 limits assumed): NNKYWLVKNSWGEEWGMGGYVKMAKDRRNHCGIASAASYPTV
Experimental: (§1) Additionally,the order of reagents added to the plate was altered because both enzymes are constitutively active. Following inhibitor addition to the plates, appropriate 2× concentrated stock dilutions of the enzyme preparations were made in assay buffer and 100 μl added to each well. The assay was initiated by addition of 100 μl of 2× concentrated stock dilution of substrate in assay buffer.

thrombin = target: T2, thrombin (Homo sapiens, UniProt P00734); assay: Inhibition of thrombin; assay type: biochemical; settings: Table II; 10 uM; read-out: Thrombin % I @ 10 uM
T2 construct: purchased Sigma Chem. Co. T-7009

α-chymotrypsin = target: T3, α-chymotrypsin (Bos taurus, UniProt P00766); assay: Inhibition of α-chymotrypsin; assay type: biochemical; settings: Table II; 10 uM; read-out: Chymotrypsin % I @ 10 uM
T3 construct: purchased Sigma Chem. Co. C-3142
In short: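 Enzyme added to inhibitor first, then reaction started with substrate; no calcium activation needed as enzyme is constitutively active. Fluorogenic substrate hydrolysis read every 5 min up to 30 min ([…]).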

[1] = target: T4, Recombinant human calpain I (Homo sapiens, UniProt P07384); assay: Rate of inactivation of calpain I (second order rate constant); assay type: biochemical; settings: Table II, read-out: Calpain Inactivation Rates
T4 construct: made in house
T4 sequence (P07384 1-714): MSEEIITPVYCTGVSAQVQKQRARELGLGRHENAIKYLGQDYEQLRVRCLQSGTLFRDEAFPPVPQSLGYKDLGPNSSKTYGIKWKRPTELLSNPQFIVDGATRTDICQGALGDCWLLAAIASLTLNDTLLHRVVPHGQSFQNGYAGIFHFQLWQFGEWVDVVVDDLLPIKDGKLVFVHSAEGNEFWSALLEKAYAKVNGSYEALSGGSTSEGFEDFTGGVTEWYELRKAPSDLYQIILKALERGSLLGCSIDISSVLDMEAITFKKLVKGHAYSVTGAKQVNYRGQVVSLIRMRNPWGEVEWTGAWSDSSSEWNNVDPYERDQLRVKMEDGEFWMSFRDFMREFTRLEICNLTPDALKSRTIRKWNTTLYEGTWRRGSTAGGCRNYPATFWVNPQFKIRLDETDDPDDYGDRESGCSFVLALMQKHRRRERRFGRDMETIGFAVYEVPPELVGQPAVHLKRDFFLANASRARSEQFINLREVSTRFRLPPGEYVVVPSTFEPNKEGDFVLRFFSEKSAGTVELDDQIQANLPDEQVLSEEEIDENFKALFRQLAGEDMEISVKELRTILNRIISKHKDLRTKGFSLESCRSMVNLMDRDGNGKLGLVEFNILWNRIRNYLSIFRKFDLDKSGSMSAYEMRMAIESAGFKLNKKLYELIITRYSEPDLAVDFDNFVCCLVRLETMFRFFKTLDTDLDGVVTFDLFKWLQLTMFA
Experimental: To evaluate inhibitory activity, stock solutions (40 times concentrated) of exemplary compounds of the invention were prepared in 100% anhydrous DMSO and 5 μL of each inhibitor preparation were aliquoted into each of three wells of a 96-well plate. Recombinant human calpain I, prepared by the method of Meyer et al. (Biochem. J. 314: 511-519 (1996)), was diluted into assay buffer (i.e., 50 mM Tris, 50 mM NaCl, 1 mM EDTA, 1 mM EGTA, and 5 mM-mercaptoethanol, pH 7.5 including 0.2 mM Succ-Leu-TyrMNA) and 175 μL aliquoted into the same wells containing the independent inhibitor stocks as well as to positive control wells containing 5 μL DMSO, but no compound. To start the reaction, 20 μL of 50 mM CaCl2 in assay buffer was added to all wells of the plate, excepting three, which were used as background signal baseline controls. Substrate hydrolysis was monitored every 5 minutes for a total of 30 minutes. Substrate hydrolysis in the absence of inhibitor was linear for up to 15 minutes.
Inhibition of calpain I activity was calculated as the percent decrease in the rate of substrate hydrolysis in the presence of inhibitor (VI) relative to the rate in its absence (VO). Comparison between VO and VI was made within the linear range for substrate hydrolysis. For screening, compounds were tested at 10, 1.0, and 0.1 μM. Compounds having 50% inhibition at 10 μM were considered active. […] The results were plotted as % inhibition versus log inhibitor concentration and the IC50 was calculated from linear regression of the data. Apparent second order rate constants were determined from analysis of reaction progress curves under pseudo-first order conditions. Each determination represents the means of three or more independent single cuvette analyses continually monitored via a Perkin-Elmer LS50B spectrofluorimeter. […]
where y is the product formed at time t. […] The apparent second order rate constant kapp was determined as Kobs /[I]. […]

[2] = target: T4, Recombinant human calpain I; assay: Inhibition of calpain I activity; assay type: biochemical; settings: Table II
cathepsin B = target: T5, cathepsin B (Homo sapiens, UniProt P07858); assay: Inhibition of cathepsin B; assay type: biochemical; settings: Table II; read-out: Cat B IC50
T5 construct: purchased Calbiochem 219364
Experimental: as §1

spectrin breakdown = assay: Spectrin breakdown in gerbil global ischemia model (CA1 hippocampal sector, Western blotting); assay type: in vivo; settings: FIG. 1
Experimental: Gerbils were anesthetized using 4% isolflurane volatilized using a gas mixture consisting of 30% O2 and 70% N2. After the induction of anesthesia, a preferred compound of the invention, compound 40 (Example 34), was administered either immediately before the induction of ischemia and 24 hours after the initiation of reperfusion (FIG. 2), or three hours after the initiation of reperfusion and 24 hours after the initiation of reperfusion (FIG. 3). To induce ischemia, the common carotid arteries were exposed and occluded bilaterally for 7 minutes. Gerbil core temperature was carefully regulated at 38° C. by a thermostatically controlled heat lamp. Reperfusion was initiated by the release of the arterial occlusion, whereupon anesthesia was terminated so that the gerbils began to breath room air. The neck incision was closed, and the gerbils were returned to the incubator for one hour to maintain their core temperature. At 1 hour of reperfusion, anesthesia was induced by inhalation of CO2 and the gerbils were sacrificed. The CA1 hippocampal sector was dissected using a hole punch (0.3 mm), and spectrin breakdown products (BDP) were determined by Western Blotting. Spectrin breakdown was quantified by image analysis, and percent inhibition was calculated by integrated optical density. […]

hippocampal CA1 neurons = assay: Survival of hippocampal CA1 neurons in gerbil global ischemia model; assay type: in vivo
Experimental: Gerbils were anesthetized using 4% isolflurane volatilized using a gas mixture consisting of 30% O2 and 70% N2. […] To induce ischemia, the common carotid arteries were exposed and occluded bilaterally for 7 minutes. Gerbil core temperature was carefully regulated at 38° C. by a thermostatically controlled heat lamp. Reperfusion was initiated by the release of the arterial occlusion, whereupon anesthesia was terminated so that the gerbils began to breath room air. The neck incision was closed, and the gerbils were returned to the incubator for one hour to maintain their core temperature. At 1 hour of reperfusion, anesthesia was induced by inhalation of CO2 and the gerbils were sacrificed.
To quantify histopathological damage, the gerbils were returned to their home cages after one hour reperfusion in the incubator and then sacrificed, as described above, four days later. The brains were rapidly removed, frozen on dry ice, and then sectioned using a cryostat. Twenty micron sections were stained with thionin, and surviving neurons in the hippocampal CA1 sector were counted using computer assisted image analysis.

CS(=O)(=O)N[C@H](COCc1ccccc1)C(=O)NC(Cc1ccccc1)C(=O)CF (stereo partly drawn) [Compound 34, BnO--CH2 CH(NHS(=O)2 CH3)C(=O)-Phe--CH2]
IC50 (cathepsin L): 1800 nM
inhibition at 10 µM (thrombin): 0%
inhibition at 10 µM (α-chymotrypsin): 14%
kinact/KI [1]: 21000 M⁻¹ s⁻¹

CS(=O)(=O)N[C@H](COCc1ccccc1)C(=O)N[C@H](C=O)Cc1ccccc1 [Compound 40, BnO--CH2 CH(NHS(=O)2 CH3)C(=O)-Phe--H]
IC50 (cathepsin L): 9 nM
IC50 [2]: 11 nM
IC50 (cathepsin B): 42 nM
inhibition at 10 µM (thrombin): 0%
inhibition at 10 µM (α-chymotrypsin): 23%
reduction of spectrin breakdown (spectrin breakdown): approximately 50%
suppression of spectrin breakdown in CA1 hippocampal sectors (spectrin breakdown; vs vehicle-treated control gerbils, p<0.0001): statistically significant suppression of spectrin breakdown
number of surviving hippocampal CA1 neurons relative to controls (hippocampal CA1 neurons; dosed immediately before ischemia and 24 hours after initiation of reperfusion, FIG. 2): more than doubled the number of surviving hippocampal CA1 neurons
neuroprotection at four days after the ischemic insult (hippocampal CA1 neurons; dosed immediately before ischemia and 24 hours after initiation of reperfusion, p<0.01, FIG. 2): neuroprotective at four days after the ischemic insult
neuroprotective effect (hippocampal CA1 neurons; dosed three hours and 24 hours after initiation of reperfusion, p<0.02, FIG. 3): neuroprotective effect

CS(=O)(=O)N[C@H](CC(=O)N1CCc2ccccc2C1)C(=O)NC(Cc1ccccc1)C(=O)CF (stereo partly drawn) [Compound 20, THIQ-2-C(=O)CH2 CH(NHS(=O)2 CH3)C(=O)-Phe--CH2 F]
IC50 (cathepsin L): 1800 nM
inhibition at 10 µM (thrombin): 0%
inhibition at 10 µM (α-chymotrypsin): 7%
kinact/KI [1]: 2800 M⁻¹ s⁻¹

CS(=O)(=O)N[C@H](CSCc1ccccc1)C(=O)NC(Cc1ccccc1)C(=O)CF (stereo partly drawn) [Compound 33, BnS--CH2 CH(NHS(=O)2 CH3)C(=O)-Phe--CH2] (Ms-[dC](Bn)-[ξF]-CH2F)
inhibition at 10 µM (thrombin): 0%
inhibition at 10 µM (α-chymotrypsin): 14%
kinact/KI [1]: 26600 M⁻¹ s⁻¹
